Data taken from article PMC4707509, “TSPO ligand residence time: a new parameter to predict compound neurosteroidogenic efficacy” (Scientific Reports, 2016).
Like-named read-outs stand apart in the source and are kept apart here.

Legend:
TSPO [1] = test system: TSPO; parameters: method as in PMID 25654303; details: relative to XBD173; cited from earlier work
neurosteroid synthesis = test system: neurosteroid synthesis; parameters: method as in PMID 25654303; details: relative to XBD173; cited from earlier work
TSPO [2] = target: T1, TSPO (Rattus norvegicus, UniProt P16257); experiment: [3H]PK11195 binding displacement assay, rat kidney membranes; details: read-out: Equilibrium Ki
T1 construct: Membranes from rat kidneys were prepared as described previously; from tissue; host or cells: rat kidney membranes
Description: (§1) Membranes from rat kidneys were prepared as described previously. All the experimental procedures were carried out following the guidelines of the European Community Council Directive 86–609 and have been approved by the Committee for animal experimentation of the University of Pisa. The resulting membrane pellets were aliquoted and frozen at –20 °C. For all radioligand binding assays, an aliquot of membranes was thawed, suspended in assay buffer (AB, Tris-HCl 50 mM, pH 7.4) and homogenized using Ultraturrax. In cell membrane homogenate, protein content was measured by the Bradford method[52] using the Bio-Rad Protein Assay reagent.
(§2) All experiments were analyzed by either linear or non linear regression using Prism 5.0 (GraphPad Software Inc., San Diego, CA). […] Competition displacement binding were fitted to sigmoidal (variable slope) curves.

TSPO [3] = target: T1, TSPO; experiment: Simplified (one-concentration) competition kinetic association assay; type: binding; details: for dissociation rate of the ligand from TSPO (rapid or slow competitor of [3H]PK11195): shape of [3H]PK11195 association curve, ligand at three-fold Ki; for Kd / koff / kon: unlabeled ligand at three-fold Ki only; for Kd: read-out: Kinetically-derived Kd = Koff/Kon
Description: The unlabeled TSPO ligand kinetic parameters were assessed using the theoretical model of Motulsky and Mahan[32]. Unlike methods in which one compound is pre-equilibrated with the receptor, this approach involves the simultaneous addition of both radioligand and competitor to receptor preparation, so that at t = 0 all receptors are unoccupied. […] The degree of bound to TSPO was assessed at multiple time points by filtration harvesting and liquid scintillation counting, as above described. […] For ‘simplified’ competition kinetic association assays, the experiments were performed using concentration of unlabeled TSPO ligands corresponding to three-fold their Ki.
Association and dissociation rates for unlabeled TSPO ligands were calculated by fitting the data in the competition association model using the ‘kinetics of competitive binding’ assay, defining the amount of radioligand bound to receptor ([RL]) as a function of time[32]: […]

rat C6 glioma cells = experiment: Pregnenolone production in C6 glioma cells (ELISA); type: cell-based; details: for Emax at 100 µM / EC50: Rattus norvegicus, 2 h; for Emax at 100 µM: read-out: Emax (at 100 μM) (vehicle set to 100%); for EC50: read-out: EC50 (pregnenolone production); for steroidogenic efficacy, ranking in words: among all tested TSPO ligands
rat = details: cited from earlier work; for anxiolytic activity in EPM test: rat
human glial cell model = test system: human glial cell model; parameters: method as in PMID 20728278; details: cited from earlier work
GABAA receptor = test system: GABAA receptor; parameters: method as in PMID 20728278; details: conditioned medium of treated glial cells; cited from earlier work
TSPO [4] = target: T1, TSPO; experiment: [3H]PK11195 binding saturation assay, rat kidney membranes; details: [3H]PK11195 saturation binding
Description: as §1, §2

[5] = displacement of 1 nM [3H]PK11195, rat kidney membranes, 0 °C
[6] = pregnenolone production at 100 μM ligand, C6 cells
[7] = C6 cells, 0-100 μM ligand, serum-free

SMILES	Ki (TSPO [2]; [5])	dissociation rate of the ligand from TSPO (rapid or slow competitor of [3H]PK11195) (TSPO [3])	Kd (TSPO [3])	Emax at 100 µM (rat C6 glioma cells; [6])	EC50 (rat C6 glioma cells; [7])	Ki (TSPO [2])	koff (TSPO [3])	kon (TSPO [3])	other results
CCNC1=Nc2ccc(Cl)cc2C(C)(c2ccccc2)O1 (stereo not shown) [Etifoxine]	–	–	–	–	–	–	–	–	binding affinity to TSPO, fold lower than XBD173 (TSPO [1]): approximately 140 fold; potency to stimulate neurosteroidogenesis compared with XBD173 (neurosteroid synthesis): more potent
CCCN(CCC)C(=O)C(=O)c1c(-c2ccccc2)[nH]c2ccccc12 [PIGA719]	12.2 ± 1.1 nM	rapid	11.9 ± 1 nM	146 ± 2%	12900 ± 1500 nM	–	–	–	–
CCCCCCN(CCCCCC)C(=O)C(=O)c1c(-c2ccccc2)[nH]c2ccccc12 [PIGA720]	1.4 ± 0.28 nM	rapid	1.79 ± 0.24 nM	144 ± 4%	29700 ± 3100 nM	–	–	–	–
CCCCCCN(CCCCCC)C(=O)C(=O)c1c(-c2ccccc2)[nH]c2ccc(Cl)cc12 [PIGA745]	–	rapid	15.1 ± 1.16 nM	140 ± 5%	34600 ± 3600 nM	13.1 ± 1.16 nM	0.000967 s⁻¹	64000 M⁻¹ s⁻¹	–
CCN(Cc1ccccc1)C(=O)C(=O)c1c(-c2ccc(Cl)cc2)[nH]c2ccc(Cl)cc12 [PIGA823]	3.3 ± 0.31 nM	slow	1.86 ± 0.17 nM	272 ± 11%	12200 ± 1300 nM	–	–	–	steroidogenic efficacy, ranking in words (rat C6 glioma cells; C6 cells): highest efficacy; anxiolytic activity in EPM test (rat): significant anxiolytic activity
CCCCN(CCCC)C(=O)C(=O)c1c(-c2ccc(Cl)cc2)[nH]c2ccc(Cl)cc12 [PIGA835]	–	rapid	1 ± 0.19 nM	149 ± 4%	25600 ± 2300 nM	0.91 ± 0.11 nM	0.000967 s⁻¹	963000 M⁻¹ s⁻¹	–
CCCN(CCC)C(=O)C(=O)c1c(-c2ccc(C)cc2)[nH]c2ccccc12 [PIGA839]	5.5 ± 0.47 nM	slow	5.45 ± 0.6 nM	254 ± 5%	16300 ± 1400 nM	–	0.00015 s⁻¹	28200 M⁻¹ s⁻¹	steroidogenic efficacy, ranking in words (rat C6 glioma cells; C6 cells): highest efficacy; anxiolytic activity in EPM test (rat): significant anxiolytic activity; allopregnanolone in medium of treated cells (human glial cell model): high levels; 36Cl- uptake into cerebral cortical synaptoneurosomes (GABAA receptor): potentiated
CCCCCCN(CCCCCC)C(=O)C(=O)c1c(-c2ccccc2)[nH]c2ccc([N+](=O)[O-])cc12 [PIGA925]	–	rapid	10 ± 1.13 nM	166 ± 5%	9710 ± 1000 nM	12.2 ± 3.14 nM	0.00113 s⁻¹	113000 M⁻¹ s⁻¹	–
CCCN(CCC)C(=O)C(=O)c1c(-c2ccc3ccccc3c2)[nH]c2ccccc12 [PIGA1128]	0.31 ± 0.02 nM	slow	0.22 ± 0.05 nM	179 ± 7%	26100 ± 1500 nM	–	0.0003 s⁻¹	1.35e+06 M⁻¹ s⁻¹	–
CCCCCN(C)C(=O)C(=O)c1c(-c2ccc3ccccc3c2)[nH]c2ccccc12 [PIGA1138]	–	slow	0.17 ± 0.03 nM	275 ± 5%	13100 ± 1400 nM	0.34 ± 0.03 nM	0.000117 s⁻¹	717000 M⁻¹ s⁻¹	steroidogenic efficacy, ranking in words (rat C6 glioma cells; C6 cells): highest efficacy
CCCCCCN(CCCCCC)C(=O)C(=O)c1c(-c2ccc(C(=O)O)cc2)[nH]c2ccccc12 [PIGA1214]	–	rapid	332 ± 15 nM	141 ± 4%	92000 ± 5600 nM	343 ± 15.9 nM	–	–	–
CCC(C)N(C)C(=O)c1cc2ccccc2c(-c2ccccc2Cl)n1 (stereo not shown) [PK11195, reference compound]	–	–	–	153 ± 4%	–	–	–	–	Bmax (TSPO [4]): 6498 ± 500 fmol/mg of proteins; EC50 (rat C6 glioma cells): 19500 ± 1800 nM; anxiolytic effect in EPM test (rat): does not determine anxiolytic effect
CN1C(=O)CN=C(c2ccc(Cl)cc2)c2cc(Cl)ccc21 [Ro5-4864, reference compound]	–	rapid	–	–	–	–	–	–	EC50 (rat C6 glioma cells): 36200 ± 2500 nM; Emax at 100 µM (rat C6 glioma cells): 150 ± 4%; anxiolytic effect in EPM test (rat): does not determine anxiolytic effect
